Assay results taken from patent publication US10278973B2, “Hydroxyl purine compounds and use thereof” (GUANGDONG RAYNOVENT BIOTECH CO., LTD., priority 2015, dated 2019).

The compounds below were run against T1, Full length human PDE2A protease (Homo sapiens, UniProt O00408) (assay: In vitro evaluation of PDE2 phosphodiesterase inhibitory activity (Transcreener AMP2/GMP2 fluorescence polarization)). Conditions: not given.
T1 construct: Full length human PDE2A protease; GST (N); host or cells: insect Sf9 cells (baculovirus)
T1 sequence (O00408 whole entry): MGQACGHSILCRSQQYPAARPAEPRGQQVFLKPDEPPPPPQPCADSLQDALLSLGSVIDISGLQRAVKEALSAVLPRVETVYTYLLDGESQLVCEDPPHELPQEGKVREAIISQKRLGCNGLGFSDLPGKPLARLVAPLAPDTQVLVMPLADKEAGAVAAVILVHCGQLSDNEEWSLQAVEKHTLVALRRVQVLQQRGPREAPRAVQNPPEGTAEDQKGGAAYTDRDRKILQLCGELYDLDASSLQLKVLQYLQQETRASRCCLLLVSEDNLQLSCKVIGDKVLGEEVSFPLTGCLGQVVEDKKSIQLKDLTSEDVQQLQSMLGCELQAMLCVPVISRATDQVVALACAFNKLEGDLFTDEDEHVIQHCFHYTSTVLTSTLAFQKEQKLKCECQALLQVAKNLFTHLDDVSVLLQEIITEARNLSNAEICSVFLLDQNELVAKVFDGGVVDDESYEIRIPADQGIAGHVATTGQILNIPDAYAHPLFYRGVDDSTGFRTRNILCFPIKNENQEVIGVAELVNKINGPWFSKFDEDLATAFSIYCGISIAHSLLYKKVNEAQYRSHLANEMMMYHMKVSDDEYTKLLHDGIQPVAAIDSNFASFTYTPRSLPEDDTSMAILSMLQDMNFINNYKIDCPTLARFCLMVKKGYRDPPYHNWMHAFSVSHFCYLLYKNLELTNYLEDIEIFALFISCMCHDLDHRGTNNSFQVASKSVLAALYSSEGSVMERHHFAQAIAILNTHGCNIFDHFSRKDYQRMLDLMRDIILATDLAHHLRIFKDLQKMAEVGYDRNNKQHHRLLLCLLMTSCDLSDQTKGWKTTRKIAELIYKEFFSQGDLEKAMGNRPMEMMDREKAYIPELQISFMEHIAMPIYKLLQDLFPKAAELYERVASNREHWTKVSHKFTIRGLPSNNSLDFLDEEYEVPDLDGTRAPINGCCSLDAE
Assay type: biochemical
Description: In Vitro Evaluation of PDE2 Phosphodiesterase Inhibitory Activity Experimental objectives: To detect the concentration of AMP/GMP produced in the reaction system by measuring the fluorescence intensity of the fluorescent dye AlexaFluor 633 substituted on AMP/GMP antibody and to calculate the PDE2 phosphodiesterase inhibitory IC50 value of the test compound. Test buffer solution: 10 mM Tris-HCl, pH 7.5, 5 mM MgCl2, 0.01% Brij 35, 1 mM DTT, and 1% DMSO. Enzyme: Full length human PDE2A protease expressed and recombined in insect Sf9 cells with baculovirus using N-terminal GST tag […] Transcreener® AMP^2/GMP^2 antibody, AMP2/GMP2 AlexaFluor 633 fluorescent dye The enzyme solution was prepared with freshly prepared buffer solution and then added to the reaction wells. The DMSO solution of the test compound was added by Echo550 non-contact nanoscale sonicate pipetting system and preincubated for 10 minutes at room temperature. The reaction was initiated by addition of substrate (1 μM cGMP) and allowed to react for one hour at room temperature. The detection system (Transcreener® AMP^2/GMP^2 antibody, AMP2/GMP2 AlexaFluor 633 fluorescent dye) was then added and reacted for 90 minutes at room temperature before fluorescence polarization was detected using Ex/Em 620/688. The intensity of fluorescence polarization was converted to nM concentration by the AMP/GMP standard curve and then relative inhibition of enzyme activity relative to DMSO blank was calculated. IC50 values and curves were calculated using the Prism software package (GraphPad Software, San Diego Calif., USA)

SMILES	IC50 [µM]
COc1ccc(Cn2c(=O)c3c(ncn3C)n(C)c2=O)cn1 [Example 48, 1-((6-Methoxypyridin-3-yl)methyl)-3,7-dimethyl-1H-purine-2,6(3H,7H)-dione]	10 to 50

Same assay, conditions: recombinant full length human PDE2A, substrate 1 μM cGMP, 1 hour at room temperature; read-out: PDE2 phosphodiesterase inhibitory activity

SMILES	IC50 [µM]
Cc1cc(CCCCn2c(=O)c3c(ncn3C)n(C)c2=O)n(C)n1 (single isomer, unassigned) [Example 14 Isomer 1, 1-(4-(1,3-dimethyl-1H-pyrazol-5-yl)butyl)-3,7-dimethyl-1H-purine-2,6(3H,7H)-dione]	10 to 50
Cn1nnnc1CCCCCn1c(=O)c2c(ncn2C)n(C)c1=O (single isomer, unassigned) [Example 40 Isomer 1, 3,7-Dimethyl-1-(5-(1-methyl-1H-tetrazol-5-yl)pentyl)-1H-purine-(3H,7H)-dione]	10 to 50
Cn1nnc(CCCCCn2c(=O)c3c(ncn3C)n(C)c2=O)n1 (single isomer, unassigned) [Example 40 Isomer 2, 3,7-Dimethyl-1-(5-(1-methyl-2H-tetrazol-5-yl)pentyl)-1H-purine-(3H,7H)-dione]	10 to 50
Cc1cc(CCCCn2c(=O)c3c(ncn3C(F)F)n(C)c2=O)on1 (single isomer, unassigned) [Example 49 Isomer 1, 7-(Difluoromethyl)-3-methyl-1-(4-(3-methylisoxazol-5-yl)butyl)-1H-purine-2,6(3H,7H)-dione]	10 to 50
CCc1cc(CCn2c(=O)c3c(ncn3C)n(C)c2=O)nn1C [Example 11 Product 2, 1-(2-(5-Ethyl-1-methyl-1H-pyrazol-3-yl)ethyl)-3,7-dimethyl-1H-purine-2,6(3H,7H)-dione]	10 to 50
Cc1cc(CCCCn2c(=O)c3c(ncn3C)n(C)c2=O)[nH]n1 [Example 12, 3,7-Dimethyl-1-(4-(3-methyl-1H-pyrazol-5-yl)butyl)-1H-purine-2,6(3H,7H)-dione]	10 to 50
Cc1cc(CCCCn2c(=O)c3c(ncn3C)n(C)c2=O)no1 [Example 20, 3,7-Dimethyl-1-(4-(5-methylisoxazol-3-yl)butyl)-1H-purine-2,6(3H,7H)-dione]	10 to 50
CC(C)c1oncc1Cn1c(=O)c2c(ncn2C)n(C)c1=O [Example 22, 1-((5-Isopropylisoxazol-4-yl)methyl)-3,7-dimethyl-1H-purine-2,6(3H,7H)-dione]	10 to 50
Cc1cc(CC2CCCC(n3c(=O)c4c(ncn4C)n(C)c3=O)C2)on1 (stereo not shown) [Example 28]	1 to 10
Cc1nc(C)c(Cn2c(=O)c3c(ncn3C)n(C)c2=O)s1 [Example 29, 1-((2,4-Dimethylthiazol-5-yl)methyl)-3,7-dimethyl-1H-purine-2,6(3H,7H)-dione]	10 to 50
Cn1cnc2c1c(=O)n(CCCCc1cn[nH]n1)c(=O)n2C [Example 34, 1-(4-(2H-1,2,3-triazol-4-yl)butyl)-3,7-dimethyl-1H-purine-2,6(3H,7H)-dione]	10 to 50
Cn1ncc(CCCCn2c(=O)c3c(ncn3C)n(C)c2=O)n1 [Example 35, 3,7-Dimethyl-1-(4-(2-methyl-2H-1,2,3-triazol-4-yl)butyl)-1H-purine-(3H,7H)-dione]	10 to 50
Cn1cnc2c1c(=O)n(CCCCc1nn[nH]n1)c(=O)n2C [Example 37, 1-(4-(2H-tetrazol-5-yl)butyl)-3,7-dimethyl-1H-purine-2,6(3H,7H)-dione]	10 to 50
Cn1nnc(CCCCn2c(=O)c3c(ncn3C)n(C)c2=O)n1 [Example 38 Isomer 1, 3,7-Dimethyl-1-(4-(2-methyl-2H-tetrazol-5-yl)butyl)-1H-purine-(3H,7H)-dione]	10 to 50
Cn1cnc2c1c(=O)n(CCCCCc1nn[nH]n1)c(=O)n2C [Example 39, 1-(5-(2H-tetrazol-5-yl)pentyl)-3,7-dimethyl-1H-purine-2,6(3H,7H)-dione]	10 to 50
Cn1cnc2c1c(=O)n(CCCc1c[nH]c3ccccc13)c(=O)n2C [Example 41]	1 to 10
Cn1cnc2c1c(=O)n(CCCCc1cc3ccccc3o1)c(=O)n2C [Example 42, 1-(4-(Benzofuran-2-yl)butyl)-3,7-dimethyl-1H-purine-2,6(3H,7H)-dione]	1 to 10
Cn1cnc2c1c(=O)n(CCCc1nc3ccccc3s1)c(=O)n2C [Example 43, 1-(3-(Benzo[d]thiazol-2-yl)propyl)-3,7-dimethyl-1H-purine 2,6(3H,7H)-dione]	10 to 50

SMILES	IC50 [µM]
Cn1cnc2c1c(=O)n(CCCc1[nH]nc3c1CCCC3)c(=O)n2C [Example 44]	10 to 50
Cc1cc(-c2ccc(Cn3c(=O)c4c(ncn4C)n(C)c3=O)cc2)on1 [Example 45, 3,7-Dimethyl-1-[4-(3-methylisoxazol-5-yl)-benzyl]-3,7-dihydro-purine-2,6-dione]	1 to 10
CCn1cnc2c1c(=O)n(CCCCc1cc(C)no1)c(=O)n2C [Example 50, 7-Ethyl-3-methyl-1-(4-(3-methylisoxazol-5-yl)butyl)-1H-purine-2,6(3H,7H)-dione]	1 to 10
Cc1cc(CCCCn2c(=O)c3c(ncn3CC(F)(F)F)n(C)c2=O)on1 [Example 51, 3-Methyl-1-(4-(3-methylisoxazol-5-yl)butyl)-7-(2,2,2-trifluoroethyl)-1H-purine-2,6(3H,7H)-dione]	10 to 50
CCCn1cnc2c1c(=O)n(CCCCc1cc(C)no1)c(=O)n2C [Example 52, 3-Methyl-1-(4-(3-methylisoxazol-5-yl)butyl)-7-propyl-1H-purine-2,6(3H,7H)-dione]	1 to 10
Cc1cc(CCCCn2c(=O)c3c(ncn3C(C)C)n(C)c2=O)on1 [Example 54, 7-Isopropyl-3-methyl-1-(4-(3-methylisoxazol-5-yl)butyl)-1H-purine-2,6(3H,7H)-dione]	10 to 50
CCCCn1cnc2c1c(=O)n(CCCCc1cc(C)no1)c(=O)n2C [Example 55, 7-Butyl-3-methyl-1-(4-(3-methylisoxazol-5-yl)butyl)-1H-purine-2,6(3H,7H)-dione]	1 to 10
Cc1cc(CCCCn2c(=O)c3c(ncn3CC3CC3)n(C)c2=O)on1 [Example 56, 7-(Cyclopropylmethyl)-3-methyl-1-(4-(3-methylisoxazol-5-yl)butyl)-1H-purine-2,6(3H,7H)-dione]	1 to 10
Cc1noc(C)c1Cn1c(=O)c2c(ncn2CC2CC2)n(C)c1=O [Example 57, 7-(Cyclopropylmethyl)-1-((3,5-dimethylisoxazol-4-yl)methyl)-3-methyl-1H-purine-2,6-(3H,7H)-dione]	1 to 10
CC(C)c1oncc1Cn1c(=O)c2c(ncn2CC2CC2)n(C)c1=O [Example 58]	1 to 10
Cc1cc(CCCCn2c(=O)c3c(ncn3CC(C)C)n(C)c2=O)on1 [Example 60, 7-Isobutyl-3-methyl-1-(4-(3-methylisoxazol-5-yl)butyl)-1H-purine-2,6(3H,7H)-dione]	1 to 10
Cc1cc(CCCCn2c(=O)c3c(ncn3CC3(C)COC3)n(C)c2=O)on1 [Example 61, 3-Methyl-1-(4-(3-methylisoxazol-5-yl)butyl)-7-((3-methyloxetan-3-yl)methyl)-1H-purine-2,6(3H,7H)-dione]	10 to 50
Cc1cc(CCCCn2c(=O)c3cc[nH]c3n(C)c2=O)on1 [Example 66, 1-Methyl-3-(4-(3-methylisoxazol-5-yl)butyl)-1H-pyrrolo[2,3-d]pyrimidine-2,4(3H,7H)-dione]	10 to 50
Cc1cc(CCCCn2c(=O)c3ccn(C)c3n(C)c2=O)on1 [Example 67, 1,7-Dimethyl-3-(4-(3-methylisoxazol-5-yl)butyl)-1H-pyrrolo[2,3-d]pyrimidine-2,4(3H,7H)-dione]	10 to 50
Cc1cc(CCCCn2c(=O)c3nn(C)cc3n(C)c2=O)on1 [Example 69, 2,4-Dimethyl-6-[4-(3-methylisoxazol-5-yl)-butyl]-2,4-dihydro-pyrazolo[4,3-d]pyrimidine-5,7-dione]	10 to 50
Cc1cc(CCCCn2c(=O)c3c(cnn3CC(F)(F)F)n(C)c2=O)on1 [Example 75, 4-Methyl-6-(4-(3-methylisoxazol-5-yl)butyl)-1-(2,2,2-trifluoroethyl)-pyrazolo[4,3-d]pyrimidine-5,7-dione]	10 to 50
Cc1cc(CCCCn2c(=O)c3c(cnn3CC3CC3)n(C)c2=O)on1 [Example 81, 1-(Cyclopropylmethyl)-4-methyl-6-(4-(3-methylisoxazol-5-yl)butyl)-pyrazolo[4,3-d]pyrimidin-5,7-dione]	10 to 50
Cc1cc(CCCCn2c(=O)c3ccccc3n(C)c2=O)on1 [Example 83, 1-Methyl-3-(4-(3-methylisoxazol-5-yl)butyl)quinazoline-2,4(1H,3H)-dione]	10 to 50
